Data from ChEMBL document CHEMBL1144281, “Inhibitors of type I MetAPs containing pyridine-2-carboxylic acid thiazol-2-ylamide. Part 2: SAR studies on the pyridine ring 3-substituent” (Bioorg Med Chem Lett, 2005).

Assays:
[1] = Inhibitory concentration against Methionine aminopeptidase-1 (EcMetAP1); set-up: species or system Escherichia coli
[2] = Inhibitory concentration against Methionine aminopeptidase-1 (ScMetAP1); set-up: species or system Saccharomyces cerevisiae

| SMILES | IC50 [1] [nM] | IC50 [2] [nM] |
| --- | --- | --- |
| C=CC(=O)Nc1cccnc1C(=O)Nc1nccs1 | > 100000 | 620 |
| O=C(CC1CCCC1)Nc1cccnc1C(=O)Nc1nccs1 | 790 | 6720 |
| CC1(C)OC1CC(=O)Nc1cccnc1C(=O)Nc1nccs1 (centres undefined) | 700 | 3370 |
| C=CCCC(=O)Nc1cccnc1C(=O)Nc1nccs1 | 510 | 12200 |
| O=C(O)CCC(=O)Nc1cccnc1C(=O)Nc1nccs1 | 140 | 2270 |
| O=C(Nc1nccs1)c1ncccc1NC(=O)C1CCC1 | > 100000 | > 100000 |
| O=C(Nc1nccs1)c1ncccc1NC(=O)C1CCCC1 | 350 | 2580 |
| O=C(O)CC(=O)Nc1cccnc1C(=O)Nc1nccs1 | 140 | 1520 |
| O=C(Nc1nccs1)c1ncccc1NC(=O)C1CC=CCC1 (centres undefined) | 810 | 15100 |
| O=C(CC1=CCCC1)Nc1cccnc1C(=O)Nc1nccs1 | 190 | 5070 |
| CC(C)=CC(=O)Nc1cccnc1C(=O)Nc1nccs1 | 220 | 770 |
| CC(C)=CCC(=O)Nc1cccnc1C(=O)Nc1nccs1 | 240 | 140 |
| O=C(O)c1ccccc1C(=O)Nc1cccnc1C(=O)Nc1nccs1 | 330 | 2270 |
| O=C(Nc1cccnc1C(=O)Nc1nccs1)C1=CCCCC1 | 970 | 21900 |
| O=C(O)C(=O)Nc1cccnc1C(=O)Nc1nccs1 | 620 | > 100000 |
| C/C=C/C(=O)Nc1cccnc1C(=O)Nc1nccs1 | > 100000 | 820 |
| CC1(C)OC1CCC(=O)Nc1cccnc1C(=O)Nc1nccs1 (centres undefined) | 560 | 3300 |
| O=C(Nc1cccnc1C(=O)Nc1nccs1)C1=CCCC1 | 360 | 5170 |
| CC(C)=CCCC(=O)Nc1cccnc1C(=O)Nc1nccs1 | 610 | 310 |
| O=C(Nc1nccs1)c1ccccn1 | 5000 | 7000 |
| C=C(C)CC(=O)Nc1cccnc1C(=O)Nc1nccs1 | 150 | 4670 |

Now those with a lower IC50 [1], led by results:

| IC50 [1] [nM] | IC50 [2] [nM] | SMILES |
| --- | --- | --- |
| 130 | 2560 | O=C(Nc1nccs1)c1ncccc1NC(=O)C1CC1 |
| 130 | 380 | C=CCC(=O)Nc1cccnc1C(=O)Nc1nccs1 |
| 120 | 420 | CN(C)CC(=O)Nc1cccnc1C(=O)Nc1nccs1 |
| 120 | 8910 | O=C(CC1=CCCCC1)Nc1cccnc1C(=O)Nc1nccs1 |
| 92 | 210 | NCC(=O)Nc1cccnc1C(=O)Nc1nccs1 |
| 90 | 150 | O=C(CN1CCCC1)Nc1cccnc1C(=O)Nc1nccs1 |
| 75 | 720 | CCOC(=O)CC(=O)Nc1cccnc1C(=O)Nc1nccs1 |
| 74 | 130 | NCCC(=O)Nc1cccnc1C(=O)Nc1nccs1 |
| 60 | 330 | O=C(Nc1cccnc1C(=O)Nc1nccs1)c1cccnc1 |
| 59 | 510 | O=C(CN1CCOCC1)Nc1cccnc1C(=O)Nc1nccs1 |
| 57 | 230 | O=C(CN(O)c1ccccc1)Nc1cccnc1C(=O)Nc1nccs1 |
| 53 | 190 | O=C(CN1CCCCC1)Nc1cccnc1C(=O)Nc1nccs1 |
| 50 | 770 | CCOC(=O)C(=O)Nc1cccnc1C(=O)Nc1nccs1 |
| 49 | 380 | CC(C)(C)OC(=O)NCC(=O)Nc1cccnc1C(=O)Nc1nccs1 |
| 49 | 230 | CCN(CC)CC(=O)Nc1cccnc1C(=O)Nc1nccs1 |
| 49 | 150 | CC(C)(C)OC(=O)NCCC(=O)Nc1cccnc1C(=O)Nc1nccs1 |
